Experimental data from patent publication US12441706B2, “Protein degradation agent compound preparation method and application” (SHANGHAI JEMINCARE PHARMACEUTICALS CO., LTD., priority 2019, dated 2025).

Tests used:
androgen receptor = biological target: T1, androgen receptor (Homo sapiens, UniProt P10275, T878A); experiment: In-Cell-Western determination of androgen receptor degradation in LnCaP cells; assay type: cell-based; details: for Dmax: LNCaP; for DC50: concentration for half of the maximal degradation of AR in LnCaP cells, 24 hours treatment
T1 construct: endogenous in cells; host or cells: LNCaP cells
T1 sequence (P10275 1-920 T878A): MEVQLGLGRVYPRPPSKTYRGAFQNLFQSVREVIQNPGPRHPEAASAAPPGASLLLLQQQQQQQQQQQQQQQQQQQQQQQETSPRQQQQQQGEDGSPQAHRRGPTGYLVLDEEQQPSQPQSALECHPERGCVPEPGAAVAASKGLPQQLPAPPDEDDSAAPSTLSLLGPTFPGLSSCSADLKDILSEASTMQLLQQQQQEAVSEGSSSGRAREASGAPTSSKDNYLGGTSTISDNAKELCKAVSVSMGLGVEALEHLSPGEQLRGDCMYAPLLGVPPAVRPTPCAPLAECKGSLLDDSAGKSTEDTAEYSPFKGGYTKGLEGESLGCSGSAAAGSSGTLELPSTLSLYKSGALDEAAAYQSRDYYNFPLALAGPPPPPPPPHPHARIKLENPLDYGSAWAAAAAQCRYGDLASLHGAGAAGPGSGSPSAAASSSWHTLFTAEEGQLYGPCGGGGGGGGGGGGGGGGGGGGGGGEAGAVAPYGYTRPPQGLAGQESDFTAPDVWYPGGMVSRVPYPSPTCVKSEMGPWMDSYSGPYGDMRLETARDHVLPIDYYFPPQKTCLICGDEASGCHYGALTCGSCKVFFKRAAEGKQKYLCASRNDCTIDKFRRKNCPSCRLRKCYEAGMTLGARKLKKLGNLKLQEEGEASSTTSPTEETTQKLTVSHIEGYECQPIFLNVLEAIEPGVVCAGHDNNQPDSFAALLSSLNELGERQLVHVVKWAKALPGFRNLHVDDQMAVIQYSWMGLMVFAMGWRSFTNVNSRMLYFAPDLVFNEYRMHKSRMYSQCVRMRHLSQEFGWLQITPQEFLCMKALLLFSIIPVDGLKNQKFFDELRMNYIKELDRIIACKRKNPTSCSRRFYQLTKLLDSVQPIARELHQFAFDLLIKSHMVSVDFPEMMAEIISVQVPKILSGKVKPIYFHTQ
Protocol: The determination evaluated the properties of the compounds in Lncap cells. Intracellular androgen receptor was determined by In-Cell-Western according to the determination steps described below.
In poly-D-Lysin pretreated 96-well cell culture plate (Corning 3599), LNcap cells were divided into 100 μL/well volume, and inoculated with 30,000 cells/well in LNcap cell assay medium [DMEM containing phenol red (Gibco catalog number: 11995065); fetal bovine serum FBS (Gibco catalog number: 10099141C)]. Cells were cultured for at least two days.
1. First treated cells with compound. Compounds were gradient diluted with DMSO and cell culture medium, so that DMSO contained in cell culture plates was diluted to 0.5% —polypropylene plates were used according to the following protocol: (1)(i) 200× stock plate in DMSO was prepared; (ii) 10 mM stock solution was diluted 1:4 with DMSO (10 μL stock solution+40 μL DMSO)=2000 μM, then entered into row 2; (iii) 1:4 (10 μL protac+40 μL DMSO) gradient dilution was performed from row 2 to row 9, and row 1 was reserved for […] reference compound and row 10 for DMSO. (iv) A total of 8 concentrations (final concentrations on the 200× plate were 2000 μM, 400 μM and 80 μM, etc.). (2) (i) 3× stock solution was prepared in the medium. (ii) 3 μL of 200× stock solution was transferred to 197 µL of culture medium (using 12-channel pipette, from line 1 to line 10), i.e. 3× stock solution plate. (iii) The stock solution plate was mixed evenly. (3) (i) The culture medium of […] cells was replaced with fresh culture medium, 100 μL volume culture medium. (ii) The well-mixed 3× stock solution was transferred to the cell culture plate (using a 12-channel pipette, and 50 μL of stock solution was transferred from line 1 to line 10). (iii) Cells were cultured for 24 hours.
2. The expression level of intracellular androgen receptor after compound treatment was […] and determined according to the following method.
(1)(i) Equal volume of 8% paraformaldehyde was added to the cell culture plate for cell fixation. The fixing solution in the cell plate was discarded and washed three times with PBS. (ii) Triton solution (1:1000 dilution of the stock solution) was prepared. The solution in the cell plate was discarded, and 200 μL of Triton diluent was added into each well. (iii) 2×blocking solution (1:4 dilution of 10×blocking stock solution) was prepared. The solution in the cell plate was discarded, and 100 μL of 2×blocking solution was added into each well. (iv) Primary antibody solution (Androgen receptor Rabbbit mAb, Cell Signaling Technology catalog number: 5153; 1:1000 dilution) was prepared. The solution in the cell plate was discarded, 100 μL volume of primary antibody diluent was added to each well, and incubated at 4° C. overnight. (v) The primary antibody solution was discarded and the cell plate was washed with 1×Wash buffer. (vi) Secondary antibody solution (GOAT Antirabbit IgG (H+L), HRP, Thermo catalog number: 31460; 1:5000 dilution) was prepared, and 100 μL volume of secondary antibody dilution was added to each well for incubation. (vii) The secondary antibody solution in the cell plate was discarded and the cell plate was washed with 1×Wash buffer. (viii) TMB chromogenic solution (BD catalog number: 550534) was prepared, and 100 μL chromogenic solution was added into each well. (ix) 50 μL volume of stop solution (BD catalog number: 550534) was added to each well. (x) The absorption values at OD 450 nm and 570 nm were read though EnVision. (2) (i) Normalized analysis was performed on the number of cells in each well. The solution in the cell plate was discarded, and washed with wash buffer for three times. (ii) Janus dilution (1:3 dilution) was prepared. (iii) 50 μL volume diluent was added to each well for incubation. (iv) The solution in the plate was discarded and washed with deionized water. […]

LNcap FGC cells = experiment: Inhibition of proliferation of LNcap FGC cells (Cell Titer Glo, 6 days); assay type: cell-based; details: Homo sapiens, LNCaP, 144 h
Protocol: Tumor cell line LNcap FGC (ATCC catalog number CRL-1740) was cultured in RPMI 1640 (Gibco catalog number 11875-093) and DMEM (Gibco catalog number. 11965-092) medium containing 10% FBS (Gibco catalog number 10099-141C), respectively.
LNcap FGC cells were inoculated in a 384-well plate (Perkin Elmer catalog number 6007460) at a cell density of 400 cells/well in a volume of 20 μL/well and incubated overnight in a carbon dioxide incubator (Thermo). The prepared compound solutions of different concentrations were added in a volume of 5 μL/well. The corresponding vehicle control was set at the same time. After being cultured in the incubator for 6 days, the cell plate and the contents were equilibrated to room temperature, and 25 μL of Cell Titer Glor (Promega catalog number G7573) was added to each well, shook and mixed well, incubated in dark for 10-30 minutes, and the signal values were detected with Envision microplate reader (PerkinElmer).
The percentage inhibition rate of compound-treated wells was calculated from the vehicle control wells on the plate, and the percentage inhibition rate data corresponding to different concentrations were fitted by GraphPad prism, and the IC50 values were calculated by 4-parameter nonlinear logic formula.

Structure (SMILES) | Dmax (androgen receptor) | DC50 (androgen receptor) | Emax (LNcap FGC cells) | IC50 (LNcap FGC cells)
CC1(C)C(=O)N(c2ccc(C#N)c(Cl)c2)c2ccc(-c3ccc(N4CC(CN5CCN(c6ccc7c(c6)C(=O)N(C6CCC(=O)NC6=O)C7=O)CC5)C4)cc3)cc21 (stereo not drawn) [Compound 1] | 82% | 90.3 nM | 91% | 66.1 nM
CC1(C)C(=O)N(c2ccc(C#N)c(C(F)(F)F)c2)c2ccc(-c3ccc(N4CC(CN5CCN(c6ccc7c(c6)C(=O)N(C6CCC(=O)NC6=O)C7=O)CC5)C4)cc3)cc21 (stereo not drawn) [Compound 3] | 89% | 87.1 nM | 93% | 54.8 nM
CC1(C)C(=O)N(c2ccc(C#N)c(Cl)c2)c2ccc(-c3ccc(N4CC(CN5CCN(c6ccc7c(c6)C(=O)N(C6CCC(=O)NC6=O)C7=O)CC5)C4)nc3F)cc21 (stereo not drawn) [Compound 14] | 93% | 66.3 nM | 100% | 60.6 nM
